Measurements taken from PubChem BioAssay AID2745 (NMMLSC, 2010).
“And” between values parts separate entries of the source, which are not always exact repeats. Identical values can stand only once. The source made the active and inactive calls. The rule behind the calls is not given here.

Assay: concentration series on yeast TOR reporter LAP4 – cell-based, MLPCN hits, flow cytometry, dose response (AID 2745);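 note: yeast exposed to compound for three hours at 30 degrees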
Details: S. cerevisiae LAP4-GFP reporter, flow cytometry fluorescence; at 33 µM (top of the series)

| Structure (SMILES) | LAP4-GFP fluorescence (kMESF) |
| --- | --- |
| CCC(C)/C(C)=N/NC(=O)c1ccc(COc2ccc(Cl)c(C)c2)cc1 (configuration not stated) | 4.7 kMESF (inactive) |
| CCn1c(=O)c(C(C)=O)c(O)c2ccccc21 | 6.66 kMESF (inactive) |
| Cc1cccc(N=C2NC(=O)/C(=C/C=C/c3ccco3)S2)c1C | 13.7 kMESF (inactive) |
| O=C(NC(=S)NNC(=O)c1ccc(Cl)cc1Cl)c1cccnc1 | 4.37 kMESF (inactive) |
| O=C1c2cccc3c([N+](=O)[O-])ccc(c23)C(=O)N1c1ccccn1 | 7.78 kMESF (inactive) |
| CCCCOc1ccc(C(=O)NNC(=S)NC(=O)CC)cc1 | 9.81 kMESF (inactive) |
| Cc1ccccc1[C@@]1(C)ON(c2ccccc2C(F)(F)F)C1=O | 5.8 kMESF (inactive) |
| COc1cc(/C=C2\C(=O)ON=C2c2ccccc2)cc(Br)c1O | 14.7 kMESF (inactive) |
| Oc1c(CN2CCCCC2)cc(Br)c2cccnc12 | 16 kMESF (inactive) |
| COc1ccc(N2C(=O)C(Cl)=C(Nc3c(C)n(C)n(-c4ccccc4)c3=O)C2=O)cc1 | 4.31 kMESF (inactive) |
| O=C(OCC(=O)N1CCN(C(=O)c2ccco2)CC1)c1cc(-c2ccc(F)cc2)nc2ccccc12 | 9.57 kMESF (inactive) and 4.75 kMESF (inactive) |
| Cc1ccc(-c2nc(N)c3c(-c4ccc(C)cc4)nn(C(C)(C)C)c3n2)cc1 | 3.37 kMESF (inactive) |
| CC(=O)n1cc(C(C[N+](=O)[O-])SCCN)c2ccccc21 (configuration not stated) | 4.35 kMESF (inactive) |
| COC(=O)CCCC1=CC2=CC(=O)C(C)(OC(=O)CCc3ccccc3)C(=O)C2=CO1 (configuration not stated) | 3.13 kMESF (inactive) |
| CCOc1ccc(C(C)=O)cc1N1C(=O)C2C3C=CC(O3)C2C1=O (configuration not stated) | 14 kMESF (inactive) |
| Cc1ccc2c(nc3s/c(=C\c4ccc(-c5ccccc5C(=O)O)o4)c(=O)n32)c1C | 15.5 kMESF (inactive) |
| O=C(Nc1ccccc1)ON=C1CCCC1 | 4.79 kMESF (inactive) |
| Cc1cc(=O)oc2cc(Oc3ccc([N+](=O)[O-])cc3C(F)(F)F)ccc12 | 3.64 kMESF (inactive) |
| CCN(CC(=O)Nc1cc(S(=O)(=O)N2CCOCC2)ccc1Cl)Cc1ccccc1 | 3.97 kMESF (inactive) |
| COc1ccccc1C(=O)NNC(=S)NC(=O)c1ccco1 | 13.2 kMESF (inactive) |
| COc1cccc(/C=C2\C(=O)N(c3cccc(C)c3)C(=O)c3ccccc32)c1 | 9.02 kMESF (inactive) |

| Structure (SMILES) | LAP4-GFP fluorescence (kMESF) |
| --- | --- |
| COc1cccc2cc(-c3nc4ccccc4o3)c(=O)oc12 | 3.03 kMESF (inactive) |
| Oc1c(Br)cc(Br)cc1C=Nc1ccc2c(c1)OCO2 | 10.8 kMESF (inactive) |
| Oc1ccc(COCc2ccccc2)c2cccnc12 | 20.4 kMESF (inactive) |
| O=C1c2cccc3c([N+](=O)[O-])ccc(c23)C(=O)N1CCc1ccccn1 | 7.15 kMESF (inactive) |
| O=C1c2ccccc2C(=O)N1OS(=O)(=O)c1ccc(F)cc1 | 9.97 kMESF (inactive) |
| C[C@H]1C[C@@H](C)C(=O)[C@@H]([C@H](O)CC2CC(=O)NC(=O)C2)C1 | 7.12 kMESF (inactive) |
| N=C1/C(=C\c2coc3ccccc3c2=O)C(=O)N=C2SC(c3ccncc3)=NN12 | -3.74 kMESF (inactive) |
| CCOc1cc(C=C2C(=O)c3ccccc3C2=O)ccc1OCC(=O)Nc1ccc(C)cc1 | 3.87 kMESF (inactive) |
| COc1cc(/C=C2\C(=O)ON=C2c2ccccc2)cc(OC)c1OC | 6.41 kMESF (inactive) |
| COC(=O)CCC(=O)OC1(C)C(=O)C2=COC(c3ccc(OC)cc3)=CC2=C(Br)C1=O (configuration not stated) | 6.01 kMESF (inactive) |
| Cc1nn2c(-c3ccncc3)nnc2c2ccccc12 | 3.34 kMESF (inactive) |
| Cc1ccc(S(=O)(=O)/N=C(\Sc2ccccc2)c2ccccc2)cc1 | 6.11 kMESF (inactive) |
| CC(=O)N(C1=C(Cl)C(=O)c2ccccc2C1=O)C1CCCCC1 | -2.43 kMESF (inactive) |
| COc1ccc([C@@]2(C(C)C)ON(c3ccccc3C(F)(F)F)C2=O)cc1 | 4.38 kMESF (inactive) |
| COC(=O)c1cc(N2C(=O)C3C(C2=O)C2(C)C=CC3(C)O2)ccc1Cl (configuration not stated) | 8.52 kMESF (inactive) |
| CCCCC(=O)NC(=S)NNC(=O)CCc1ccccc1 | 8.13 kMESF (inactive) |
| O=C(OCC(=O)N1CCN(C(=O)c2ccco2)CC1)c1cc(-c2ccc(Cl)c(Cl)c2Cl)nc2ccccc12 | 4.61 kMESF (inactive) |
| C#CCOCCOCCOCCNc1nc(N2CCN(C(=O)CCCCCCCCCCNC(=O)[C@H](CCCCN)n3cc(CCCC(=O)O)nn3)CC2)nc(N2CCN(C(=O)CCCCCCCCCCNC(=O)[C@H](CCCN=C(N)N)n3cc(C[C@@H](C)CC)nn3)CC2)n1 | 5.16 kMESF (inactive) |
| CC(C)Cn1c(=O)c(C(=O)Nc2ccncc2)c(O)c2ccccc21 | 2.36 kMESF (inactive) |
| COc1ccccc1[C@]1(C)ON(c2ccccc2C(F)(F)F)C1=O | 7.79 kMESF (inactive) |
| O=C(Nc1nc2ccc(F)cc2s1)c1ccccn1 | 8.11 kMESF (inactive) |
